According to US9198425B2, “Herbicidally-effective sulfinyl aminobenzamides” (BAYER INTELLECTUAL PROPERTY GMBH, priority 2012, dated 2015):

What was measured:
Test in all cases: Pre-emergence herbicidal action
Type in all cases: in vivo
Abutilon theophrasti = conditions: dosage 320 g/ha
Excerpt: (§1) Seeds of monocotyledonous and dicotyledonous weed plants and crop plants are placed in wood-fiber pots in sandy loam and covered with soil. The inventive compounds formulated in the form of wettable powders (WP) or as emulsion concentrates (EC) are then applied to the surface of the covering soil as an aqueous suspension or emulsion at a water application rate of 600 to 800 l/ha (converted) with addition of 0.2% wetting agent. After the treatment, the pots are placed in a greenhouse and kept under good growth conditions for the test plants. The damage to the test plants is assessed visually after a test period of 3 weeks by comparison with untreated controls (herbicidal activity in percent (%): 100% action=the plants have died, 0% action=like control plants). For example, compounds No. 6-102, 6-014 and 6-058 at an application rate of 320 g/ha each show at least 80% efficacy against Abutilon theophrasti, Amaranthus retroflexus and Matricaria inodora.
(§2) In accordance with the conditions specified for pre-emergence testing of herbicidal efficacy against harmful plants, comparative tests were conducted between inventive compounds and compounds known from WO 2011035874 A1.

Amaranthus retroflexus = conditions: dosage 320 g/ha
Excerpt: as §1, §2

Matricaria inodora = conditions: dosage 320 g/ha
Excerpt: as §1, §2

Pharbitis purpureum = conditions: dosage 320 g/ha
Excerpt: as §1, §2

Veronica persica = conditions: Table A, dosage 320 g/ha
Excerpt: as §1, §2

Stellaria media = conditions: dosage 320 g/ha
Excerpt: as §1, §2

Avena fatua = conditions: Table C, dosage 320 g/ha
Excerpt: as §1, §2

| SMILES | Herbicidal efficacy against ABUTH (Abutilon theophrasti; Table A) [%] | Herbicidal efficacy against AMARE (Amaranthus retroflexus; Table A) [%] | Herbicidal efficacy against MATIN (Matricaria inodora; Table A) [%] | Herbicidal efficacy against PHBPU (Pharbitis purpureum; Table A) [%] | Herbicidal efficacy against VERPE (Veronica persica) [%] | Herbicidal efficacy against ABUTH (Abutilon theophrasti; Table B) [%] | Herbicidal efficacy against AMARE (Amaranthus retroflexus; Table B) [%] | Herbicidal efficacy against MATIN (Matricaria inodora; Table B) [%] | Herbicidal efficacy against STEME (Stellaria media; Table B) [%] | Herbicidal efficacy against AVEFA (Avena fatua) [%] | Herbicidal efficacy against MATIN (Matricaria inodora; Table C) [%] | Herbicidal efficacy against PHBPU (Pharbitis purpureum; Table C) [%] | Herbicidal efficacy against STEME (Stellaria media; Table C) [%] |
| --- | --- | --- | --- | --- | --- | --- | --- | --- | --- | --- | --- | --- | --- |
| CCS(=O)(CC)=Nc1c(Cl)ccc(C(=O)Nc2nonc2C)c1Cl | 80 | 90 | 90 | 80 | 90 | – | – | – | – | – | – | – | – |
| Cc1nonc1NC(=O)c1ccc(Cl)c(N=S2(=O)CCCCC2)c1Cl | – | – | – | – | – | 90 | 60 | 90 | 70 | – | – | – | – |
| Cc1nonc1NC(=O)c1ccc(Cl)c(N=S2(=O)CCOCC2)c1Cl | – | – | – | – | – | – | – | – | – | 70 | 100 | 100 | 90 |
| Cc1nonc1NC(=O)c1ccc(Cl)c(N(C)C)c1Cl [drawing 39] | 0 | 30 | 0 | 10 | 40 | – | – | – | – | – | – | – | – |
| Cc1nonc1NC(=O)c1ccc(Cl)c(N(C)C)c1Cl [drawing 41] | – | – | – | – | – | 0 | 30 | 0 | 0 | – | – | – | – |
| Cc1nonc1NC(=O)c1ccc(Cl)c(N(C)C)c1Cl [drawing 43] | – | – | – | – | – | – | – | – | – | 0 | 0 | 10 | 0 |
